Measured values taken from publication PMC9078697, “Discovery and preliminary SAR of 14-aryloxy-andrographolide derivatives as antibacterial agents with immunosuppressant activity” (RSC Advances, 2018).
Where two headings read alike, the source gives them in different places.

What was measured:
[1] = system: IL-6/STAT3 signaling pathway; assay: IL-6/STAT3 luciferase reporter assay in AD-293 cells; format: cell-based; conditions: AD-293 reporter cells, 2.5 μg mL−1 IL-6, treated for 16 h
Source text: (§1) We utilized luciferase reporters bearing the promoter regions of TNF-α/NF-κB, TLR4/NF-κB, and IL-6/STAT3 ([ref. 25]) to examine the activities of the antibacterial active andrographolide analogs in the regulation of signaling pathways that govern inflammatory response (Table 2). […] Like their similarity in inhibitory activity against E. faecalis, E. coli and S. aureus (Table 1), 3-keto-19-alcohol compound 9b1 suppresses three signaling pathways in the same fashion as 6b17 (Table 2). […] Cells from the AD-293 cell line, a derivative of the HEK293 cell line with improved adherence and plaque formation properties, were purchased from Stratagene (La Jolla, CA, USA). The protocols were adopted and modified from our previous report.[25] All compounds were dissolved in DMSO at 10 mM as a stock solution. The final concentration of DMSO was 0.1% in the culture medium. AD-293 cells bearing luciferase reporters with promoter regions of IL-6/STAT3 and TNF-α/NF-κB in pGL4.20 vector (Promega) were maintained in DMEM high glucose medium supplemented with 10% FBS and 1% penicillin streptomycin in the presence of 1 μg mL^−1 puromycin. AD-293 cells overexpressing TLR4 and stably transfected with NF-κB reporter were maintained in DMEM high glucose medium in the presence of 1 μg mL^−1 puromycin and 10 μg mL^−1 blasticidin. All cells were maintained in a humidified incubator at 37 °C in 95% air and 5% CO2. Reporter cells were treated with 50 ng mL^−1 TNF-α to stimulate the NF-κB signaling pathway, 1 μg mL^−1 LPS to stimulate the TLR4/NF-κB signaling pathway, and 2.5 μg mL^−1 IL-6 to stimulate the IL-6/STAT3 signaling pathway. The medium was removed at the end of the treatment, cell extracts were prepared, and the luciferase activity was measured using a Luciferase assay kit (Promega) according to the manufacturer's instructions. EC50 was defined as the concentration of drug that inhibited stimulator-triggered luciferase reporter activation by 50% after continuous drug exposure for 4 (TNF-α/NF-κB) or 16 (IL-6/STAT3 and TLR4/NF-κB) hours. Each concentration was repeated 3 times independently.

E. faecalis = assay: Bacteriostatic screening (growth, OD630) against E. faecalis; format: cell-based; conditions: for IC50: 24 h, IC50 generated when inhibition at 250 μM was higher than 80%
Experimental: (§2) The strategy in this study was to submit these synthesized compounds to a preliminary screening test against E. coli, S. aureus and E. faecalis (ciprofloxacin was used as a reference compound; see Table 1). […] The tested compound or ciprofloxacin (positive drug) was dissolved in DMSO and diluted with LB liquid medium into a stock solution containing 20% DMSO before use; the stock solution of the carrier was 20% DMSO in LB liquid medium. All the experiments, including blank controls, were performed in triplicate. Bacteriostatic screening was performed by applying a modified protocol of the National Committee on Clinical Laboratory Standards (NCCLS).[29] Briefly, E. coli, S. aureus and E. faecalis cells (American Type Culture Collection, ATCC) were grown in LB plate medium for one passage, then seeded in LB liquid medium and cultured at 37 °C for 12 h. After being diluted 1000 times, 190 μL diluted cells were aliquoted to 96-well plates; then, 10 μL stock solution of carrier or a gradient amount of the tested compound or the positive compound, ciprofloxacin, were added; the final concentration of DMSO was 1% in all wells. The blank controls contained 1% DMSO and LB medium but no bacterial cells.

[2] = system: TLR4/NF-κB signaling pathway; assay: TLR4/NF-κB luciferase reporter assay in AD-293 cells; format: cell-based; conditions: AD-293 reporter cells, 1 μg mL−1 LPS, treated for 16 h
Source text: as §1

[3] = system: TNF-α/NF-κB signaling pathway; assay: TNF-α/NF-κB luciferase reporter assay in AD-293 cells; format: cell-based; conditions: AD-293 reporter cells, 50 ng mL−1 TNF-α, treated for 4 h
Source text: as §1

AD-293 cells [4] = assay: Cytotoxicity (MTT) in AD-293 cells; format: cell-based; conditions: treated for 24 h
S. aureus = assay: Bacteriostatic screening (growth, OD630) against S. aureus; format: cell-based; conditions: for inhibition rate (%) SA / inhibition at 250 µM: at 250 μM of the tested compound; for inhibition at 250 µM / IC50: Staphylococcus aureus; for inhibition at 250 µM: read-out: inhibition rate (%) SA; for IC50: 24 h, IC50 generated when inhibition at 250 μM was higher than 80%
Experimental: as §2

E. coli = assay: Bacteriostatic screening (growth, OD630) against E. coli; format: cell-based; conditions: for inhibition rate (%) EC / inhibition at 250 µM: at 250 μM of the tested compound; for inhibition at 250 µM / IC50: Escherichia coli; for inhibition at 250 µM: read-out: inhibition rate (%) EC; for IC50: 24 h, IC50 generated when inhibition at 250 μM was higher than 80%
Experimental: as §2

[5] = Cytotoxicity (MTT) in AD-293 cells; format: cell-based; conditions: human, AD-293 cells (HEK293 derivative), treated for 24 h
[6] = system: IL-6/STAT3 signaling pathway; parameters: method as in PMID 28680097; conditions: AD-293 reporter cells; treated for 16 h; cited from earlier work
[7] = system: TLR4/NF-κB signaling pathway; parameters: method as in PMID 28680097; conditions: AD-293 reporter cells; treated for 16 h; cited from earlier work
AD-293 cells [8] = system: AD-293 cells; parameters: method as in PMID 28680097; conditions: treated for 24 h; cited from earlier work
[9] = system: TNF-α/NF-κB signaling pathway; parameters: method as in PMID 28680097; conditions: AD-293 reporter cells; treated for 4 h; cited from earlier work

Compound: (14α)-(Quinolyl-8′-oxy)-3,19-acetonylidene andrographolide [5a17]
- EC50 [1]: 4.71 ± 0.17 µM
- IC50 (E. faecalis): 10.4 ± 2.5 µM
- EC50 [2]: > 10 µM
- EC50 [3]: > 10 µM
- CC50 (AD-293 cells [4]): > 10 µM
- inhibition rate (%) SA (S. aureus): (35) %
- inhibition rate (%) EC (E. coli): (44) %

Compound: C=C1CC[C@@H]2[C@](C)(COC(C)=O)[C@H](O)CC[C@@]2(C)[C@@H]1C/C=C1/C(=O)OC[C@@H]1Oc1cccc2cccnc12 [7b1, (14β)-(quinolyl-8′-oxy)-19-acetoxy andrographolide]
- EC50 ([1]; Homo sapiens, AD293): > 10 µM
- IC50 (E. faecalis; Enterococcus faecalis): 8.6 ± 0.7 µM
- EC50 ([2]; Homo sapiens, AD293): > 10 µM
- EC50 ([3]; Homo sapiens, AD293): 4.91 ± 0.02 µM
- CC50 at 24 h [5]: > 10 µM
- inhibition at 250 µM (S. aureus): 58%
- inhibition at 250 µM (E. coli): 60%

Compound: C=C1CC[C@@H]2[C@](C)(CO[Si](C)(C)C(C)(C)C)[C@H](O)CC[C@@]2(C)[C@@H]1C/C=C1/C(=O)OC[C@@H]1Oc1cccc2cccnc12 [7b2, (14β)-(quinolyl-8′-oxy)-19-(t-butyldimethylsilyloxy)andrographolide]
- IC50 (E. faecalis; Enterococcus faecalis): 26.2 ± 2.8 µM
- inhibition at 250 µM (S. aureus): 23%
- inhibition at 250 µM (E. coli): 24%
- melting point: 149 to 151 °C

Compound: C=C1CCC2C(C)(CO)C(O)CCC2(C)C1CC=C1C(=O)OCC1Oc1ccc([N+](=O)[O-])cc1OC (stereo not drawn) [6b3, (14β)-(2′-Methoxy-4′-nitro)phenoxy-andrographolide]
- IC50 (E. faecalis): 140 ± 11.9 µM
- EC50 [6]: > 10 µM
- inhibition rate (%) SA (S. aureus; 250 µM): (44) %
- EC50 [7]: 3.49 ± 0.34 µM
- CC50 (AD-293 cells [8]): > 10 µM
- EC50 [9]: 8.97 ± 1.03 µM

Compound: C=C1CCC2C(C)(CO)C(O)CCC2(C)C1CC=C1C(=O)OCC1Oc1cccc2cccnc12 (stereo not drawn) [6a17, (14α)-(Quinolyl-8′-oxy)andrographolide]
- EC50 [1]: 5.62 ± 0.13 µM
- IC50 (E. faecalis): 16.3 ± 2.1 µM
- EC50 [2]: > 10 µM
- EC50 [3]: > 10 µM
- CC50 (AD-293 cells [4]): > 10 µM
- inhibition rate (%) SA (S. aureus): (66) %
- inhibition rate (%) EC (E. coli): (70) %

Compound: C=C1CC[C@H]2[C@@](C)(CCC(=O)[C@@]2(C)CO)[C@@H]1C/C=C1/C(=O)OC[C@@H]1Oc1cccc2cccnc12 [9b, (14β)-(quinolyl-8′-oxy)-3-keto andrographolide]
- EC50 ([1]; Homo sapiens, AD293): 6.13 ± 0.39 µM
- IC50 (E. faecalis; Enterococcus faecalis): 9.1 ± 2.1 µM
- EC50 ([2]; Homo sapiens, AD293): 5.96 ± 0.03 µM
- EC50 ([3]; Homo sapiens, AD293): 2.03 ± 0.01 µM
- CC50 at 24 h [5]: > 10 µM
- IC50 (S. aureus): 27.6 ± 1.8 µM
- IC50 (E. coli): 27.9 ± 1.5 µM
- melting point: 141 to 143 °C

Compound: C=C1CC[C@@H]2[C@](C)(CO)[C@H](O)CC[C@@]2(C)[C@@H]1C/C=C1/C(=O)OC[C@@H]1Oc1cccc2cccnc12 [6b17, (14β)-(Quinolyl-8′-oxy)andrographolide]
- EC50 ([1]; Homo sapiens, AD293): 2.41 ± 0.31 µM
- IC50 (E. faecalis; Enterococcus faecalis): 6.3 ± 1.5 µM
- times more active than 5b17 against E. faecalis (E. faecalis; versus 5b17): 3 times
- EC50 ([2]; Homo sapiens, AD293): 2.65 ± 0.07 µM
- EC50 ([3]; Homo sapiens, AD293): 2 ± 0.28 µM
- CC50 at 24 h [5]: > 10 µM
- IC50 (S. aureus): 37.5 ± 2.2 µM
- IC50 (E. coli): 21.6 ± 1.7 µM
- melting point: 134 to 136 °C

Compound: C=C1CC[C@@H]2[C@](C)(CO)[C@H](O)CC[C@@]2(C)[C@@H]1C/C=C1/C(=O)OC[C@H]1O [compound 1, Andrographolide]
- EC50 ([1]; Homo sapiens, AD293): > 10 µM
- EC50 ([2]; Homo sapiens, AD293): > 10 µM
- EC50 ([3]; Homo sapiens, AD293): > 10 µM
- CC50 at 24 h [5]: > 10 µM

Compound: C=C1CCC2C3(C)COC(C)(C)OC3CCC2(C)C1CC=C1C(=O)OCC1Oc1cccc2cccnc12 (stereo not drawn) [5b17, (14β)-(Quinolyl-8′-oxy)-3,19-acetonylidene andrographolide]
- EC50 [1]: 6.35 ± 0.77 µM
- IC50 (E. faecalis): 19.3 ± 2.3 µM
- EC50 [2]: 2.85 ± 0.07 µM
- EC50 [3]: 2.45 ± 0.49 µM
- CC50 (AD-293 cells [4]): > 10 µM
- inhibition rate (%) SA (S. aureus): (27) %
- inhibition rate (%) EC (E. coli): (47) %

Compound: C=C1CC[C@H]2[C@@](C)(CCC(=O)[C@@]2(C)COC(C)=O)[C@@H]1C/C=C1/C(=O)OC[C@@H]1Oc1cccc2cccnc12 [8b1, (14β)-(quinolyl-8′-oxy)-3-keto-19-acetoxy andrographolide]
- EC50 ([1]; Homo sapiens, AD293): > 10 µM
- IC50 (E. faecalis; Enterococcus faecalis): 7.6 ± 0.8 µM
- EC50 ([2]; Homo sapiens, AD293): 4.84 ± 0.31 µM
- EC50 ([3]; Homo sapiens, AD293): > 10 µM
- CC50 at 24 h [5]: > 10 µM
- inhibition at 250 µM (S. aureus): 42%
- inhibition at 250 µM (E. coli): 34%
